Read-outs that look alike come from different tables or passages of the source.
How the values were obtained:
[1] = system: A2058 melanoma cancer cell line; assay: Cell proliferation by ATP vialight, 9-point titrations with fixed concentrations of the complementary drug; type: cell-based, human; conditions: for EC50: Homo sapiens, 72 hours
Procedure: To determine the ability of each drug to potentiate the activity of the other, Applicants performed 9-point titrations of each in the added presence of increasing, but fixed, concentrations of the complimentary drug (FIGS. 1A and 1B). Analysis of cell proliferation was determined after 72 hours (3 days) incubation with either DMSO (as control) or the indicated concentrations of MK-1775 and MK-8776 by ATP vialight (Promega). […] EC50 concentrations were calculated (GraphPad Prism, GraphPad Software, San Diego, Calif.).
Inhibition of WEE1 and CHK1 lead to aberrant CDK1 and/or CDK2 activity, and without wishing to be bound by any theory, this is thought to underlie the potential of either target for having deleterious effects on actively dividing tumor cells. Because of the possible overlap in the MK-1775 and MK-8776 mechanisms of action, Applicants carried out […] synergy experiments.

[2] = system: A2058 melanoma, HT-29 colorectal and LoVo colorectal cancer cells; assay: Growth assay (ATP ViaLight) at concentrations with negligible single-agent effect; type: cell-based, human
Procedure: A2058 melanoma cancer cells were treated with 125 nM MK-1775, 150 nM MK-8776, or both. HT-29 colorectal cancer cells were treated with 125 nM MK-1775, 300 nM MK-8776, or both. LoVo colorectal cancer cells were treated with 40 nM MK-1775, 75 nM MK-8776, or both. FIG. 2A depicts cell proliferation and was scored at either 48 or 72 hours as the percentage of ATP ViaLight® (ViaLight® Assay, Lonza, Basel, Switzerland) of treated samples relative to DMSO treated controls.

LoVo cells = assay: DNA damage (γH2AX) by flow cytometry in LoVo cells; type: cell-based, human
Procedure: A2058 melanoma cancer cells were treated with 125 nM MK-1775, 150 nM MK-8776, or both. HT-29 colorectal cancer cells were treated with 125 nM MK-1775, 300 nM MK-8776, or both. LoVo colorectal cancer cells were treated with 40 nM MK-1775, 75 nM MK-8776, or both. […] FIG. 2B depicts DNA damage and was scored at either 24 or 48 hours as the percentage of cells positive for the DNA damage marker γH2AX (histone H2AX phosphorylated at serine 139) determined by flow cytometry.

LoVo xenograft tumors [3] = assay: Pharmacodynamic DNA damage analysis (Western blot pCHK1 S345, IHC γH2AX) in xenograft tumors; type: in vivo, CD-1 Nu/Nu female mice; conditions: 2 days BID, 60 mpk each agent
Procedure: CD-1 Nu/Nu female mice aged 5-6 weeks (Charles River Laboratories) were inoculated with 5×10^6 LoVo cells in 100 uL (1:1 Matrigel:PBS) subcutaneously (S.C.) into the right flank. […] Three animals from each group were sacrificed via carbon dioxide inhalation at 2 hours, 24 hours, or 48 hours after the 4th and final dose of the 2 day BID schedule. Tumors were resected, split roughly in half, and stored in 10% formalin for immunohistochemistry (IHC) or at −80° C. for Western blot analysis.

LoVo xenograft tumors [4] = assay: Anti-tumor efficacy in xenograft model of human colorectal cancer; type: in vivo, CD-1 Nu/Nu female mice; conditions: study day 18, 3 cycles of 2 day BID dosing, 50 mpk, single agent plus vehicle
Procedure: The anti-tumor efficacy of this combination was assessed in a xenograft model of human colorectal cancer. CD-1 Nu/Nu female mice aged 5-6 weeks (Charles River Laboratories) were inoculated with 5×10^6 LoVo cells in 100 uL (1:1 Matrigel:PBS) S.C. into the right flank. […] Tumor volume and body weights were recorded bi-weekly.

SMILES	reduction of MK-1775 EC50 ([1]; A2058 cells, addition of 150 nM MK-8776) [fold]	EC50 ([1]; A2058 cells, MK-1775 alone, read-out: average EC50 of growth inhibition) [nM]	EC50 ([1]; A2058 cells, addition of 150 nM MK-8776, read-out: average MK-1775 EC50 with added MK-8776) [nM]	shift in the MK-1775 response curve (sham synergy experiment) ([1]; MK-1775 titrated over 75 nM of the labelled drug)	effect in growth assay, single agent ([2]; A2058: 125 nM MK-1775, 150 nM MK-8776, HT-29: 125 nM, 300 nM, LoVo: 40 nM, 75 nM, 48 or 72 hours)	cells with detectable γH2AX (LoVo cells; LoVo cells, 24 hour treatment, 40 nM MK-1775, 75 nM MK-8776, or both) [%]	pCHK1 S345 by Western blot at 2 hours after the final dose (LoVo xenograft tumors [3])	pCHK1 S345 effect at 24 hours after the final dose (LoVo xenograft tumors [3])	T/C (LoVo xenograft tumors [4]) [%]	effect on A2058 proliferation by itself [1]	maximum cell growth inhibition at the highest concentration of MK-8776 [1]	shift in the MK-1775 response curve (sham synergy experiment) [1]	shift of MK-8776 EC50 curves [1]	shift of the MK-1775 response curve caused by added drug [1]	effect in growth assay, single agent [2]	cells with detectable γH2AX (LoVo cells) [%]
C=CCn1c(=O)c2cnc(Nc3ccc(N4CCN(C)CC4)cc3)nc2n1-c1cccc(C(C)(C)O)n1 [MK-1775, 2-allyl-1-[6-(1-hydroxy-1-methylethyl)pyridin-2-yl]-6-{[4-(4-methylpiperazin-1-yl)phenyl]amino}-1,2-dihydro-3H-pyrazolo[3,4-d]pyrimidin-3-one]	5	225	45	did not cause a shift in the response curve	negligible effect	6	transient increase	lost	42							
Cn1cc(-c2cnn3c(N)c(Br)c([C@@H]4CCCNC4)nc23)cn1 [MK-8776, (R)-(−)-6-Bromo-3-(1-methyl-1H-pyrazol-4-yl)-5-piperidin-3-yl-pyrazolo[1,5-a]pyrimidin-7-ylamine]							transient increase	lost	52	do not effect A2058 proliferation	dose-dependent increase	robust potency shift	leftward shifts in EC50 curves	leftward shift of the MK-1775 response curve	negligible effect	5
